Laboratory results taken from patent publication US11707441B2, “Safinamide for treating myotonia” (Zambon S.P.A., priority 2018, dated 2023).
Like-named read-outs stand apart in the source and are kept apart here. Blank lines part the entries; values can stand above or below the compound they belong to.

Columns and labels:
[1] = test system: rat model of myotonia congenita; experiment: In vivo antimyotonic activity in 9-AC-induced rat model of myotonia congenita, time of righting reflex (TRR)
Procedure: Myotonia was induced in rats by intraperitoneal injection of 9-AC, which is a known blocker of skeletal muscle ClC-1 chloride channels (Conte Camerino et al., Muscle Nerve. 1989; 12(11):898-904. Altamura et al., Br J Pharmacol. 2018; 175(10):1770-1780). Male Wistar rats (250-300 g) were used. Experiments were performed in accordance with the Guide for the Care and Use of Laboratory Animals and with Italian Health Department approval n. 194/2018-PR. Experimenters were blinded to the treatments. In this animal model, 9-AC mimics in vivo myotonia congenita, a human disease due to loss-of-function mutations in CLCN1 gene encoding ClC-1 channels. […] Nevertheless, the animals remained fully conscious and alert. Breathing was normal. When hearing an unexpected noise, the animals reacted by a jump on site but had great difficulties to move away due to muscle stiffness. Myotonia was evaluated by measuring the time of righting reflex (TRR, the time needed for the rat placed in supine position to turn back on its four paws). In rats, before 9-AC injections the TRR was less than 0.5 s. […] Then the TRR decreased gradually over time, being close to 1 s, 3 h after 9-AC. An anti-myotonic drug is expected to counteract the 9-AC-induced TRR prolongation. The TRR was evaluated about 10 minutes before 9-AC (Time 0) and 10, 37, 67, 127, and 187 min after 9-AC (30 mg/kg i.p.). The TRR measured at each time point was the mean of 7 measurements spaced by 1 min (to limit warm-up effect). Safinamide methanesulfonate (10 and 30 mg/kg as free base) or vehicle were administrated by oral gavage to the rats 17 min after 9-AC injection. 9-AC and safinamide methanesulfonate were dissolved in bicarbonate and 0.9% NaCl solution, respectively. To allow comparison between rats, the TRR measured at each time point was normalized as a function of TRR measured 10 min after 9AC injection in the same rat. Then average data were calculated for each dosage as the mean±S.E.M. Statistical analysis was performed using one-way analysis of variance (ANOVA) followed by ad-hoc Bonferroni's t test. […] In this in vivo model the dose-response curve of safinamide methanesulfonate at increasing doses (0.3, 1, 3, 10 and 30 mg/kg as free base) was also studied. To allow comparison between rats, the TRR measured at each time point was normalized as a function of TRR measured 10 min after 9AC injection in the same rat. Then average data were calculated for each drug/dosage as the mean±S.E.M. Statistical analysis will be performed using one-way analysis of variance (ANOVA) followed by ad-hoc Bonferroni's t test.

hNav1.4 point mutations = experiment: Potency in cells transfected with hNav1.4 point mutations compared to wild type; assay type: cell-based, human
Procedure: The effect of safinamide was evaluated on some hNav1.4 point mutations located in the inactivation site. Human skeletal muscle subtype of voltage-gated sodium channels (hNav1.4), either wild-type or myotonic mutants, were transiently transfected in HEK293T cells with the calcium-phosphate co-precipitation method. Whole-cell sodium currents (INa) were recorded at room temperature (20-22° C.) using Axon conventional patch-clamp hardware (Molecular Devices, USA). Voltage clamp protocols and data acquisition were performed with pCLAMP software (Axon Instruments). Bath solution contained (mM) 150 NaCl, 4 KCl, 2 CaCl2, 1 MgCl2, 5 Na-HEPES, and 5 glucose (pH 7.4). The pipette solution contained (in mM) 120 CsF, 10 CsCl, 10 NaCl, 5 EGTA, and 5 Cs-HEPES (pH 7.2). Patch pipettes made with Corning 7052 glass (King glass, USA) had resistance ranging from 1 to 3 MΩ. […] The concentration-response curves of safinamide were produced by obtaining the peak current amplitude measured in the presence of drug (IDRUG), normalized to the peak current amplitude measured in the same cell before drug application (ICTRL), as a function of drug concentration [(DRUG)]. […] The IC50 values were determined at resting membrane potential (tonic block: -120 mV at 0.1 Hz) and after repetitive depolarizing pulses to -20 mV at 10 Hz (use and frequency-dependent block). […]

[2] = test system: sarcolemma excitability in single myofibers of isolated Extensor Digitorum Longus (EDL) muscles; experiment: In vitro antimyotonic activity in rat EDL skeletal muscle fibers, 9-AC-induced myotonia-like condition, two-microelectrode current clamp; assay type: cell-based; conditions: for reduction of N spikes (maximum number of spikes): vs 9-AC alone
Procedure: The antimyotonic activity of safinamide was assessed by recording the sarcolemma excitability in single myofibers of isolated Extensor Digitorum Longus (EDL) muscles using two-microelectrode current-clamp technique. The in-vitro model of myotonia congenita was obtained by incubating rat EDL muscles with 9-anthracene carboxylic acid (9-AC) (Conte Camerino et al., Muscle Nerve. 1989; 12(11):898-904. Altamura et al., Br J Pharmacol. 2018; 175(10):1770-1780). The increase of sarcolemma excitability caused by 9-AC through the blockade of skeletal muscle ClC-1 chloride channels mimicked the abnormal action potential firing observed in patients affected by myotonia congenita.
EDL muscles were dissected out from male Wistar rats under deep anaesthesia (80 mg/kg ip ketamine and 10 mg/kg ip xylazine). Muscles were placed in a 25 ml muscle bath maintained at 30° C. and perfused with saline (gassed with 95% O2 and 5% CO2; pH=7.2-7.3). By means of standard two-intracellular-microelectrode technique, the resting membrane potential and excitability characteristics (number of spikes) of muscle fibres were measured in current clamp mode. The excitability characteristics of the sampled fibres were determined by recording the intracellular membrane potential response to a square-wave constant (100 ms) current pulse. In each fibre, the membrane potential was set by a steady holding current to −80 mV before passing the depolarizing pulses. By increasing the amplitude of the pulse we were able to elicit the first single action potential and by further increasing current intensity in the same fibre, the maximum number of elicitable spikes (N spikes) was measured (Pierno et al., Br J Pharmacol. 2006; 149(7):909-19).
Unwarranted muscle contractions were hampered with dantrolene sodium (2 mg/1). Cell excitability parameters (N spikes) was measured before (control) and after 50 μM 9-AC alone and concomitant application of safinamide at six different concentrations (0.1 to 30 μM). In these experimental conditions, safinamide methanesulfonate was used and dissolved as stock solution (10 mM) in distilled water, then it was diluted to the final concentrations in the muscle bath solution. One animal was used to test two concentrations of safinamide: one concentration in each EDL muscle.

hNav1.4 I1310N = hNav1.4 I1310N (Homo sapiens, UniProt P35499, I1310N); experiment: Whole-cell patch clamp sodium current inhibition in transfected HEK293T cells, I1310N mutant; assay type: cell-based
Procedure: p.I1310N: this mutation has been found in 5 related of a French kindred, and is associated to sodium channel myotonia (Farinato et al., 2019).
(§1) Human skeletal muscle subtype of voltage-gated sodium channels (hNav1.4), either wild-type or myotonic mutants, were transiently transfected in HEK293T cells with the calcium-phosphate co-precipitation method. Whole-cell sodium currents (INa) were recorded at room temperature (20-22° C.) using Axon conventional patch-clamp hardware (Molecular Devices, USA). Voltage clamp protocols and data acquisition were performed with pCLAMP software (Axon Instruments). Bath solution contained (mM) 150 NaCl, 4 KCl, 2 CaCl2, 1 MgCl2, 5 Na-HEPES, and 5 glucose (pH 7.4). […]
(§2) Inhibition of hNav1.4 channels by safinamide was evaluated by measuring the reduction of INa elicited from a holding potential (HP) of −120 to −30 mV at frequency stimulations of 0.1 and 10 Hz. The concentration-response curves of safinamide were produced by obtaining the peak current amplitude measured in the presence of drug (IDRUG), normalized to the peak current amplitude measured in the same cell before drug application (ICTRL), as a function of drug concentration [(DRUG)]. […] The IC50 values were determined at resting membrane potential (tonic block: −120 mV at 0.1 Hz) and after repetitive depolarizing pulses to −20 mV at 10 Hz (use and frequency-dependent block). […]

hNav1.4 P1158L = molecular target: T1, hNav1.4 P1158L (Homo sapiens, UniProt P35499, P1158L); experiment: Whole-cell patch clamp sodium current inhibition in transfected HEK293T cells, P1158L mutant; assay type: cell-based
T1 construct: expressed in transfected cells; host or cells: HEK293T
Procedure: as §1, with “7.4). The pipette solution contained (in mM) 120 CsF, 10 CsCl, 10 NaCl, 5 EGTA, and 5 Cs-HEPES (pH 7.2).” for “7.4).”
as §2

hNav1.4 F1298C = molecular target: T2, hNav1.4 F1298C (Homo sapiens, UniProt P35499, F1298C); experiment: Whole-cell patch clamp sodium current inhibition in transfected HEK293T cells, F1298C mutant; assay type: cell-based
T2 construct: expressed in transfected cells; host or cells: HEK293T
Text: p.F1298C: this mutation was found in a person, presenting with stiffness in facial, upper and lower limb muscles, mainly after contraction (Farinato et al., 2019). Symptoms worsened with cold and myotonia was reported as painful. The patient noticed a mild improvement of myotonia with exercise.
(§3) Human skeletal muscle subtype of voltage-gated sodium channels (hNav1.4), either wild-type or myotonic mutants, were transiently transfected in HEK293T cells with the calcium-phosphate co-precipitation method. Whole-cell sodium currents (INa) were recorded at room temperature (20-22° C.) using Axon conventional patch-clamp hardware (Molecular Devices, USA). […]
as §2

Wild Type hNav1.4 = molecular target: T3, Wild Type hNav1.4 (Homo sapiens, UniProt P35499); experiment: Whole-cell patch clamp sodium current inhibition in transfected HEK293T cells, wild type; assay type: cell-based
T3 construct: expressed in transfected cells; host or cells: HEK293T
Procedure: as §1, with “7.4). The pipette solution contained (in mM) 120 CsF, 10 CsCl, 10 NaCl, 5 EGTA, and 5 Cs-HEPES (pH 7.2).” for “7.4).”
as §2

hNav1.4 V1293I = molecular target: T4, hNav1.4 V1293I (Homo sapiens, UniProt P35499, V1293I); experiment: Whole-cell patch clamp sodium current inhibition in transfected HEK293T cells, V1293I mutant; assay type: cell-based
T4 construct: expressed in transfected cells; host or cells: HEK293T
Procedure: p.V1293I: the V1293I mutation is associated to various phenotypes, from sodium channel myotonia to paramyotonia congenita+hyperkalemic periodic paralysis (Koch et al., 1995).
as §3, with “USA). Voltage clamp protocols and data acquisition were performed with pCLAMP software (Axon Instruments).” for “USA).”
as §2

[3] = HP -120 mV, 0.1 Hz, read-out: IC50 ± SE Tonic block at 0.1 Hz
[4] = repetitive depolarizing pulses, 10 Hz, read-out: IC50 ± SE Use and frequency-dependent block at 10 Hz

Sequence of hNav1.4 I1310N (P35499 whole entry I1310N): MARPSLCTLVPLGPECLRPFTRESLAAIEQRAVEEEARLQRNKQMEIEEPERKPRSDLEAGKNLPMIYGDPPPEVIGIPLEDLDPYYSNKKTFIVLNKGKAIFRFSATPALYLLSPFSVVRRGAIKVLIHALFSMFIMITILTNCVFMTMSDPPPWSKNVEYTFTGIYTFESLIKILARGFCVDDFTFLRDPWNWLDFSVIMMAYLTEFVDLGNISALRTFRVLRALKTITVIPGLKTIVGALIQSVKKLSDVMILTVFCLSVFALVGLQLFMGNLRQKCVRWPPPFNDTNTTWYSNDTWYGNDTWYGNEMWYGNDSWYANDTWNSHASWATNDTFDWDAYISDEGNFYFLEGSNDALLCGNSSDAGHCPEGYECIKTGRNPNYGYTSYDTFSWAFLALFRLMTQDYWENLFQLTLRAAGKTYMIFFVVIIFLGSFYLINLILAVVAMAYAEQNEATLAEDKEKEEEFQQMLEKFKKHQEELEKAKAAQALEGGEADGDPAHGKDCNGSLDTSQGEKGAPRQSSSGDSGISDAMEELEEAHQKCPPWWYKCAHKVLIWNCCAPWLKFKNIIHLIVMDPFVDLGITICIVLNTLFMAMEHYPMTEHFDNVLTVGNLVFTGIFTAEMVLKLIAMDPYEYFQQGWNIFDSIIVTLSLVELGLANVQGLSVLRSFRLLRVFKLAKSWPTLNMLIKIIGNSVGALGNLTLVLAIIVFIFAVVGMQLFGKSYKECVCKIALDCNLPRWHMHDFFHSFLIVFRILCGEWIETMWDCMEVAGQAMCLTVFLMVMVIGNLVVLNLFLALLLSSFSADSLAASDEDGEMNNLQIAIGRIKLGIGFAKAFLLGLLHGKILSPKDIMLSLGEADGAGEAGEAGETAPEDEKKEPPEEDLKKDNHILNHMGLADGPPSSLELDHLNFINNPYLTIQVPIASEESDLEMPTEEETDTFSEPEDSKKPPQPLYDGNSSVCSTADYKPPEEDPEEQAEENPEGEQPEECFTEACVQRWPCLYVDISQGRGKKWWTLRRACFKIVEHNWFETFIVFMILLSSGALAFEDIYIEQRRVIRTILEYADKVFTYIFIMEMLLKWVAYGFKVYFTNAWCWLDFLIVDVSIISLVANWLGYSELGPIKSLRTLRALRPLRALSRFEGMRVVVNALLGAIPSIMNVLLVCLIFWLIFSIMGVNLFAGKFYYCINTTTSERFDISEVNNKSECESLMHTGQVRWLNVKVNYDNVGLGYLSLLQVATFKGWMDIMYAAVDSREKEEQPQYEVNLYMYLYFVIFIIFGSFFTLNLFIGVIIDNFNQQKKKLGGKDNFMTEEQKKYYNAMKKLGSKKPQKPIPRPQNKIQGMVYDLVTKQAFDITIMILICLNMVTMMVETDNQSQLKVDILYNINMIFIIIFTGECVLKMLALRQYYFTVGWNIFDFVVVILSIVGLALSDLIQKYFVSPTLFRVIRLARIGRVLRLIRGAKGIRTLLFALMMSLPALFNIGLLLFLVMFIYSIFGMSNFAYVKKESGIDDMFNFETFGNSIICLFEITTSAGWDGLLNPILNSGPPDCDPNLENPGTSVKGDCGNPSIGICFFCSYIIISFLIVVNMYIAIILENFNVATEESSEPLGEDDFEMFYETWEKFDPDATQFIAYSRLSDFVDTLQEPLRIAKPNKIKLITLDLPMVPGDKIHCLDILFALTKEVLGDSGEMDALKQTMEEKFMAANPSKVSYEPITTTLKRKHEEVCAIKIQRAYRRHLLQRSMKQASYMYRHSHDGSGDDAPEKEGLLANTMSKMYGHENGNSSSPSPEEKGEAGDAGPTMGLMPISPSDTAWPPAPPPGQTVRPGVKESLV
T4 sequence (P35499 whole entry V1293I): as the sequence (P35499 whole entry I1310N) above, with V1293I, N1310I counted along it
T2 sequence (P35499 whole entry F1298C): as the sequence (P35499 whole entry I1310N) above, with F1298C, N1310I counted along it
T3 sequence (P35499 whole entry): as the sequence (P35499 whole entry I1310N) above, with N1310I counted along it
T1 sequence (P35499 whole entry P1158L): as the sequence (P35499 whole entry I1310N) above, with P1158L, N1310I counted along it

Compound: Cc1cccc(C)c1OCC(C)N (centres unmarked) [mexiletine]
potency relative to safinamide in the same test (fold less potent) ([1]; TRR, 9-AC rat model): about 6 fold
potency in hNav1.4 point mutations transfected cells (hNav1.4 point mutations): significantly decreases

Compound: O=C(O)c1c2ccccc2cc2ccccc12 [9-AC, 9-anthracene carboxylic acid]
time of righting reflex (TRR) ([1]; 10 min after 9-AC injection): about 2 s
time of righting reflex (TRR) ([1]; 30 min after 9-AC injection): about 4 s
time of righting reflex (TRR) ([1]; 3 h after 9-AC injection): ~1 s
increase of N spikes ([2]; 50 μM 9-AC alone vs control): 60%

IC50 (hNav1.4 I1310N; [3]): 170 ± 26 µM
IC50 (hNav1.4 I1310N; [4]): 46 ± 7 µM
IC50 (hNav1.4 P1158L; [3]): 148 ± 13 µM
IC50 (hNav1.4 P1158L; [4]): 34 ± 3 µM
IC50 (hNav1.4 F1298C; [3]): 173 ± 12 µM
IC50 (hNav1.4 F1298C; [4]): 83 ± 2 µM
IC50 (Wild Type hNav1.4; [3]): 160 ± 18 µM
IC50 (Wild Type hNav1.4; [4]): 33 ± 4 µM
IC50 (hNav1.4 V1293I; [3]): 171 ± 19 µM
IC50 (hNav1.4 V1293I; [4]): 47 ± 5 µM
IC50 ([2]; Rattus norvegicus, fit of concentration-response curve, ±SE of the fit, 50 μM 9-AC, read-out: IC50 (concentration able to reduce by 50% the 9-AC effect)): 13.4 ± 2.4 µM
Compound: C[C@H](NCc1ccc(OCc2cccc(F)c2)cc1)C(N)=O [safinamide, (2S)-2-[[4-[(3-fluorophenyl)methoxy]phenyl]methylamino]propanamide]
reduction of TRR ([1]; 37 min after 9-AC, 3, 10 and 30 mg/kg oral): significant
maximal effect on TRR prolongation ([1]; 67 min, dose of 10-30 mg/kg oral): 66%
TRR inhibition ([1]; 67 min after 9-AC (peak effect), also with 1 mg/kg oral): significant
TRR inhibition ([1]; 127 min after 9-AC, only 10 and 30 mg/kg oral): significant inhibition
ED50 ([1]; Rattus norvegicus, 67 min, dose-response curve at 67 min, oral, read-out: ED50 (effective dose in inhibiting by 50% TRR prolongation)): 1.2 mg/kg
effect on 9-AC-induced TRR prolongation ([1]; at peak effect (37 and 67 min after 9-AC), oral gavage): dose-dependently and significantly counteracted
duration of effect on TRR prolongation ([1]; oral gavage, 17 min after 9-AC): ≤ 120 min
reduction of N spikes (maximum number of spikes) ([2]; safinamide 1 μM with 50 μM 9-AC): 22±6%
reduction of N spikes (maximum number of spikes) ([2]; safinamide 5 μM with 50 μM 9-AC): 35±5%
reduction of N spikes (maximum number of spikes) ([2]; safinamide 10 μM with 50 μM 9-AC): 42±5%
reduction of N spikes (maximum number of spikes) ([2]; safinamide 30 μM with 50 μM 9-AC): 60±6%
reversibility of antimyotonic effect upon wash-out ([2]; wash-out, 9-AC 50 μM): reversible
